From ChEMBL document CHEMBL3046750, “Synthesis, characterization and antimicrobial activity of novel ethyl 1-(N-substituted)-5-phenyl-1H-pyrazole-4-carboxylate derivatives” (2012)
Values after ≈ are worked out from the molar mass of the structure shown. Active and inactive are the calls of the source. The calls are words filed in the database; no cut-off is given here.

Experiments:
Pseudomonas aeruginosa [1] = test: Antibacterial activity against Pseudomonas aeruginosa after 16 hr by serial dilution method; format: functional
Escherichia coli [2] = test: Antibacterial activity against Escherichia coli after 16 hr by serial dilution method; format: functional
Bacillus subtilis [3] = test: Antibacterial activity against Bacillus subtilis after 16 hr by serial dilution method; format: functional
Staphylococcus aureus [4] = test: Antibacterial activity against Staphylococcus aureus after 16 hr by serial dilution method; format: functional
Escherichia coli [5] = test: Antibacterial activity against Escherichia coli at 1.6125 ug/ml after 16 hr by serial dilution method; format: functional, organism-based
Bacillus subtilis [6] = test: Antibacterial activity against Bacillus subtilis at 1.6125 ug/ml after 16 hr by serial dilution method; format: functional, organism-based
Staphylococcus aureus [7] = test: Antibacterial activity against Staphylococcus aureus at 1.6125 ug/ml after 16 hr by serial dilution method; format: functional, organism-based
Pseudomonas aeruginosa [8] = test: Antibacterial activity against Pseudomonas aeruginosa at 1.6125 ug/ml after 16 hr by serial dilution method; format: functional, organism-based

Q: Which MIC (Pseudomonas aeruginosa [1]) does the source give for `CCOC(=O)c1cnn(C2CCCCC2)c1-c1ccccc1` here?
A: The MIC was 6.25 µg/mL (≈ 20.9 µM).

Q: And the MIC (Escherichia coli [2])?
A: The MIC was 12.5 µg/mL (≈ 41.9 µM).

Q: What about the MIC (Bacillus subtilis [3]) of the same molecule?
A: Its MIC is 6.25 µg/mL (≈ 20.9 µM).

Q: What about the MIC (Staphylococcus aureus [4]) of the same molecule?
A: The MIC was 6.25 µg/mL (≈ 20.9 µM).

Q: What does the source list for `CCOC(=O)c1cnn(C(C)(C)C)c1-c1ccccc1`?
A: Activity (Escherichia coli [5]): inactive; Activity (Bacillus subtilis [6]): inactive; Activity (Staphylococcus aureus [7]): inactive; Activity (Pseudomonas aeruginosa [8]): inactive

Q: For `CCOC(=O)c1cnn(-c2ccc3ccccc3n2)c1-c1ccccc1`, which MIC (Pseudomonas aeruginosa [1]) is on record?
A: The MIC was 3.12 µg/mL (≈ 9.1 µM).

Q: And the MIC (Escherichia coli [2])?
A: Its MIC is 6.25 µg/mL (≈ 18.2 µM).

Q: What about the MIC (Bacillus subtilis [3]) of the same molecule?
A: Its MIC is 3.12 µg/mL (≈ 9.1 µM).

Q: And the MIC (Staphylococcus aureus [4])?
A: Its MIC is 3.12 µg/mL (≈ 9.1 µM).

Q: With `CCOC(=O)c1cnn(-c2ccc(C(=O)O)cc2)c1-c1ccccc1` as the molecule, how does the Activity (Escherichia coli [5]) read?
A: Its Activity is “inactive”.

Q: What about the Activity (Bacillus subtilis [6]) of the same molecule?
A: Its Activity is “inactive”.

Q: What about the MIC (Pseudomonas aeruginosa [1]) of the same molecule?
A: The MIC was 25 µg/mL (≈ 74.3 µM).

Q: What about the MIC (Staphylococcus aureus [4]) of the same molecule?
A: Its MIC is 50 µg/mL (≈ 149 µM).

Q: `CCOC(=O)c1cnn(-c2ccc(F)cc2)c1-c1ccccc1` was tested. Which MIC (Pseudomonas aeruginosa [1]) did it give?
A: The MIC was 1.61 µg/mL (≈ 5.2 µM).

Q: And the MIC (Escherichia coli [2])?
A: The MIC was 1.61 µg/mL (≈ 5.2 µM).

Q: What about the MIC (Bacillus subtilis [3]) of the same molecule?
A: Its MIC is 3.12 µg/mL (≈ 10.1 µM).

Q: What about the MIC (Staphylococcus aureus [4]) of the same molecule?
A: The MIC was 6.25 µg/mL (≈ 20.1 µM).

Q: For `CCOC(=O)c1cnn(-c2ccccc2Br)c1-c1ccccc1`, which MIC (Pseudomonas aeruginosa [1]) is on record?
A: The MIC was 1.61 µg/mL (≈ 4.34 µM).

Q: What about the MIC (Escherichia coli [2]) of the same molecule?
A: The MIC was 1.61 µg/mL (≈ 4.34 µM).

Q: What about the MIC (Bacillus subtilis [3]) of the same molecule?
A: Its MIC is 1.61 µg/mL (≈ 4.34 µM).

Q: What about the MIC (Staphylococcus aureus [4]) of the same molecule?
A: The MIC was 3.12 µg/mL (≈ 8.42 µM).

Q: For `CCOC(=O)c1cnn(-c2ccc(Cl)cc2Cl)c1-c1ccccc1`, which MIC (Pseudomonas aeruginosa [1]) is on record?
A: The MIC was 3.25 µg/mL (≈ 9 µM).

Q: And the MIC (Escherichia coli [2])?
A: Its MIC is 1.61 µg/mL (≈ 4.47 µM).

Q: And the MIC (Bacillus subtilis [3])?
A: The MIC was 1.61 µg/mL (≈ 4.47 µM).

Q: And the MIC (Staphylococcus aureus [4])?
A: Its MIC is 1.61 µg/mL (≈ 4.47 µM).

Q: `CCOC(=O)c1cnn(-c2ccc(C(C)(C)C)cc2)c1-c1ccccc1` was tested. Which Activity (Escherichia coli [5]) did it give?
A: The Activity was “inactive”.

Q: And the MIC (Pseudomonas aeruginosa [1])?
A: Its MIC is 12.5 µg/mL (≈ 35.9 µM).

Q: And the Activity (Staphylococcus aureus [7])?
A: The Activity was “inactive”.

Q: What about the MIC (Bacillus subtilis [3]) of the same molecule?
A: Its MIC is 12.5 µg/mL (≈ 35.9 µM).

Q: For `CCOC(=O)c1cnn(-c2ccc(C)cc2)c1-c1ccccc1`, which Activity (Escherichia coli [5]) is on record?
A: The Activity was “inactive”.

Q: And the Activity (Bacillus subtilis [6])?
A: Its Activity is “inactive”.

Q: And the Activity (Staphylococcus aureus [7])?
A: Its Activity is “inactive”.

Q: And the Activity (Pseudomonas aeruginosa [8])?
A: Its Activity is “inactive”.

Q: How did the MIC (Pseudomonas aeruginosa [1]) turn out when `CCOC(=O)c1cnn(-c2ccc(C(F)(F)F)cc2)c1-c1ccccc1` was run?
A: Its MIC is 1.61 µg/mL (≈ 4.48 µM).

Q: What about the MIC (Escherichia coli [2]) of the same molecule?
A: The MIC was 1.61 µg/mL (≈ 4.48 µM).

Q: What about the MIC (Bacillus subtilis [3]) of the same molecule?
A: The MIC was 1.61 µg/mL (≈ 4.48 µM).

Q: And the MIC (Staphylococcus aureus [4])?
A: Its MIC is 3.12 µg/mL (≈ 8.67 µM).

Q: Which results are given for `CCOC(=O)c1cnn(C)c1-c1ccccc1`?
A: Activity (Escherichia coli [5]): inactive; Activity (Bacillus subtilis [6]): inactive; Activity (Staphylococcus aureus [7]): inactive; Activity (Pseudomonas aeruginosa [8]): inactive

Q: Which MIC (Pseudomonas aeruginosa [1]) does the source give for `CCOC(=O)c1cnn(C2CCNCC2)c1-c1ccccc1` here?
A: The MIC was 1.61 µg/mL (≈ 5.39 µM).

Q: And the MIC (Escherichia coli [2])?
A: Its MIC is 1.61 µg/mL (≈ 5.39 µM).

Q: And the MIC (Bacillus subtilis [3])?
A: The MIC was 3.12 µg/mL (≈ 10.4 µM).

Q: And the MIC (Staphylococcus aureus [4])?
A: The MIC was 3.12 µg/mL (≈ 10.4 µM).

Q: Which results are given for `CO/N=C(\C(=O)N[C@@H]1C(=O)N2C(C(=O)O)=C(CSc3nc(=O)c(O)nn3C)CS[C@H]12)c1csc(N)n1` [CEFTRIAXONE]?
A: MIC (Pseudomonas aeruginosa [1]): 1.61 µg/mL (≈ 2.91 µM); MIC (Escherichia coli [2]): 1.61 µg/mL (≈ 2.91 µM); MIC (Bacillus subtilis [3]): 1.61 µg/mL (≈ 2.91 µM); MIC (Staphylococcus aureus [4]): 3.12 µg/mL (≈ 5.63 µM)
